Assay results published in PubChem BioAssay (NCI).
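A five-concentration, 48-hour dose response in 96-well plates underlies each endpoint, interpolated linearly between surrounding concentrations. The concentration for 50% growth inhibition is given as GI50. TGI is the concentration that stops growth completely.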 Where a SMILES comes first, the peptide text is derived from it. The star is where a group is joined. Palmitoyl = CCCCCCCCCCCCCCCC(=O)*

Columns and labels:
Test in all cases: NCI-60 cell line screen, 48 h
SNB-19 CNS = test system: SNB-19 CNS
MCF7 breast = test system: MCF7 breast
NCI-H23 lung = test system: NCI-H23 lung
SF-268 CNS = test system: SF-268 CNS
OVCAR-3 ovarian = test system: OVCAR-3 ovarian
HL-60(TB) leukemia = test system: HL-60(TB) leukemia
SF-539 CNS = test system: SF-539 CNS
M14 melanoma = test system: M14 melanoma
NCI/ADR-RES ovarian = test system: NCI/ADR-RES ovarian
OVCAR-8 ovarian = test system: OVCAR-8 ovarian
OVCAR-4 ovarian = test system: OVCAR-4 ovarian
UACC-257 melanoma = test system: UACC-257 melanoma
RPMI-8226 leukemia = test system: RPMI-8226 leukemia
SW-620 colon = test system: SW-620 colon
SK-MEL-5 melanoma = test system: SK-MEL-5 melanoma
T-47D breast = test system: T-47D breast
NCI-H522 lung = test system: NCI-H522 lung
SR leukemia = test system: SR leukemia
ACHN renal = test system: ACHN renal
786-0 renal = test system: 786-0 renal
HT29 colon = test system: HT29 colon
MDA-MB-231 breast = test system: MDA-MB-231 breast
A549 NSCLC = test system: A549 NSCLC
DU-145 prostate = test system: DU-145 prostate
NCI-H460 lung = test system: NCI-H460 lung
SK-OV-3 ovarian = test system: SK-OV-3 ovarian
NCI-H226 lung = test system: NCI-H226 lung
HS 578T breast = test system: HS 578T breast
SK-MEL-28 melanoma = test system: SK-MEL-28 melanoma
CCRF-CEM leukemia = test system: CCRF-CEM leukemia
OVCAR-5 ovarian = test system: OVCAR-5 ovarian
SN12C renal = test system: SN12C renal
UO-31 renal = test system: UO-31 renal
MDA-MB-435 = test system: MDA-MB-435
HCT-116 colon = test system: HCT-116 colon
K-562 leukemia = test system: K-562 leukemia
SNB-75 CNS = test system: SNB-75 CNS
A498 renal = test system: A498 renal
SK-MEL-2 melanoma = test system: SK-MEL-2 melanoma
SF-295 CNS = test system: SF-295 CNS
HOP-62 NSCLC = test system: HOP-62 NSCLC
LOX IMVI melanoma = test system: LOX IMVI melanoma
HCT-15 colon = test system: HCT-15 colon
BT-549 breast = test system: BT-549 breast
CAKI-1 renal = test system: CAKI-1 renal
U251 CNS = test system: U251 CNS
MOLT-4 leukemia = test system: MOLT-4 leukemia
PC-3 prostate = test system: PC-3 prostate
IGROV1 ovarian = test system: IGROV1 ovarian
COLO 205 colon = test system: COLO 205 colon
KM12 colon = test system: KM12 colon
TK-10 renal = test system: TK-10 renal
MALME-3M melanoma = test system: MALME-3M melanoma
RXF 393 renal = test system: RXF 393 renal
HOP-92 NSCLC = test system: HOP-92 NSCLC
HCC-2998 colon = test system: HCC-2998 colon
EKVX NSCLC = test system: EKVX NSCLC

## CCOc1cccnc1/C=N/NC(N)=S
SNB-19 CNS
  GI50: 4.43 µM
  TGI: > 100 µM
MCF7 breast
  GI50: 3.25 µM
  TGI: > 100 µM
NCI-H23 lung
  GI50: 5.05 µM
  TGI: > 100 µM
SF-268 CNS
  GI50: 3.42 µM
  TGI: > 100 µM
OVCAR-3 ovarian
  GI50: 4.44 µM
  TGI: > 100 µM
HL-60(TB) leukemia
  GI50: 2.42 µM
  TGI: 6.16 µM
SF-539 CNS
  GI50: 2.8 µM
  TGI: 9.59 µM
M14 melanoma
  GI50: 3.14 µM
  TGI: 15 µM
NCI/ADR-RES ovarian
  GI50: 3.99 µM
  TGI: > 100 µM
OVCAR-8 ovarian
  GI50: 3.48 µM
  TGI: > 100 µM
OVCAR-4 ovarian
  GI50: 2.79 µM
  TGI: > 100 µM
UACC-257 melanoma
  GI50: 3.99 µM
  TGI: 39.1 µM
RPMI-8226 leukemia
  GI50: 3.82 µM
  TGI: > 100 µM
SW-620 colon
  GI50: 4.46 µM
  TGI: > 100 µM
SK-MEL-5 melanoma
  GI50: 3.4 µM
  TGI: > 100 µM
T-47D breast
  GI50: 4.85 µM
  TGI: > 100 µM
NCI-H522 lung
  GI50: 3.05 µM
  TGI: > 100 µM
SR leukemia
  GI50: 2.98 µM
  TGI: 12.3 µM
ACHN renal
  GI50: 4.01 µM
  TGI: > 100 µM
786-0 renal
  GI50: 3.66 µM
  TGI: > 100 µM
HT29 colon
  GI50: 4.34 µM
  TGI: > 100 µM
MDA-MB-231 breast
  GI50: 3.27 µM
  TGI: > 100 µM
A549 NSCLC
  GI50: 3.34 µM
  TGI: > 100 µM
DU-145 prostate
  GI50: 3.53 µM
  TGI: > 100 µM
NCI-H460 lung
  GI50: 3.48 µM
  TGI: > 100 µM
SK-OV-3 ovarian
  GI50: 5.01 µM
  TGI: > 100 µM
NCI-H226 lung
  GI50: 3.6 µM
  TGI: 83 µM
HS 578T breast
  GI50: 52.3 µM
  TGI: > 100 µM
SK-MEL-28 melanoma
  GI50: 4.75 µM
  TGI: > 100 µM
CCRF-CEM leukemia
  GI50: 3 µM
  TGI: 12 µM
OVCAR-5 ovarian
  GI50: 6.37 µM
  TGI: > 100 µM
SN12C renal
  GI50: 3.5 µM
  TGI: > 100 µM
UO-31 renal
  GI50: 2.9 µM
  TGI: 26.6 µM
MDA-MB-435
  GI50: 4.53 µM
  TGI: > 100 µM
HCT-116 colon
  GI50: 4.26 µM
  TGI: > 100 µM
K-562 leukemia
  GI50: 3.72 µM
  TGI: > 100 µM
SNB-75 CNS
  GI50: 3.84 µM
  TGI: > 100 µM
A498 renal
  GI50: 3.95 µM
  TGI: > 100 µM
SK-MEL-2 melanoma
  GI50: 9.93 µM
  TGI: > 100 µM
SF-295 CNS
  GI50: 3.92 µM
  TGI: > 100 µM
HOP-62 NSCLC
  GI50: 3.71 µM
  TGI: 48.5 µM
LOX IMVI melanoma
  GI50: 2.7 µM
  TGI: 14 µM
HCT-15 colon
  GI50: 4.08 µM
  TGI: > 100 µM
BT-549 breast
  GI50: 6.02 µM
  TGI: > 100 µM
CAKI-1 renal
  GI50: 3.51 µM
  TGI: > 100 µM
U251 CNS
  GI50: 2.9 µM
  TGI: > 100 µM
MOLT-4 leukemia
  GI50: 3.13 µM
  TGI: 10.4 µM
PC-3 prostate
  GI50: 3.9 µM
  TGI: > 100 µM
IGROV1 ovarian
  GI50: 5.01 µM
  TGI: > 100 µM
COLO 205 colon
  GI50: 3.87 µM
  TGI: > 100 µM
KM12 colon
  GI50: 4.38 µM
  TGI: > 100 µM

## CCCCCCCCCCCCCCCC(=O)NC(CCCCN)C(=O)NCC(=O)NC(Cc1ccccc1)C(=O)N1CCCC1C(=O)NC(CO)C(=O)NC(Cc1ccc(O)cc1)C(=O)NC(CCCCN)C(=O)NC(CC(C)C)C(=O)NC(CCCN=C(N)N)C(=O)N1CCCC1C(=O)NCC(N)=O (configuration not stated) (Palmitoyl-KGFPSYKLRPG-NH2; configuration not given here)
SNB-19 CNS
  GI50: 26.6 µM
  TGI: 54.9 µM
MCF7 breast
  GI50: 21.1 µM
  TGI: 44 µM
NCI-H23 lung
  GI50: 23.9 µM
  TGI: 55.6 µM
SF-268 CNS
  GI50: 21.7 µM
  TGI: 46.1 µM
OVCAR-3 ovarian
  GI50: 28.6 µM
  TGI: 76.5 µM
HL-60(TB) leukemia
  GI50: 19.1 µM
  TGI: 39.9 µM
SF-539 CNS
  GI50: 21.1 µM
  TGI: 48.1 µM
M14 melanoma
  GI50: 18.4 µM
  TGI: 37.9 µM
NCI/ADR-RES ovarian
  GI50: 20.7 µM
  TGI: 42.9 µM
OVCAR-8 ovarian
  GI50: 21.9 µM
  TGI: 52.8 µM
OVCAR-4 ovarian
  GI50: 30.5 µM
  TGI: 78.7 µM
UACC-257 melanoma
  GI50: 21.8 µM
  TGI: 48 µM
RPMI-8226 leukemia
  GI50: 13.1 µM
  TGI: 32.5 µM
SW-620 colon
  GI50: 26 µM
  TGI: 79.5 µM
SK-MEL-5 melanoma
  GI50: 27.7 µM
  TGI: > 100 µM
T-47D breast
  GI50: 18 µM
  TGI: 45.2 µM
NCI-H522 lung
  GI50: 22.1 µM
  TGI: 50.6 µM
TK-10 renal
  GI50: 21.9 µM
  TGI: 44.8 µM
SR leukemia
  GI50: 17.7 µM
  TGI: 39.4 µM
MALME-3M melanoma
  GI50: > 100 µM
  TGI: > 100 µM
RXF 393 renal
  GI50: 27.6 µM
  TGI: 69.4 µM
HT29 colon
  GI50: 17 µM
  TGI: 30.7 µM
MDA-MB-231 breast
  GI50: 17.3 µM
  TGI: 33.2 µM
A549 NSCLC
  GI50: 19.5 µM
  TGI: 44.4 µM
DU-145 prostate
  GI50: 20.2 µM
  TGI: 49.4 µM
NCI-H460 lung
  GI50: 19.2 µM
  TGI: 37.2 µM
SK-OV-3 ovarian
  GI50: 23 µM
  TGI: 44.7 µM
NCI-H226 lung
  GI50: 20.2 µM
  TGI: 42.5 µM
HS 578T breast
  GI50: 31.2 µM
  TGI: > 100 µM
SK-MEL-28 melanoma
  GI50: 28.6 µM
  TGI: 68.2 µM
CCRF-CEM leukemia
  GI50: 20.5 µM
  TGI: 40.2 µM
OVCAR-5 ovarian
  GI50: 20.7 µM
  TGI: 48.1 µM
UO-31 renal
  GI50: 20.2 µM
  TGI: 49.9 µM
MDA-MB-435
  GI50: 19 µM
  TGI: 50.8 µM
HCT-116 colon
  GI50: 15.3 µM
  TGI: 31.8 µM
K-562 leukemia
  GI50: 22.2 µM
  TGI: 47.9 µM
SNB-75 CNS
  GI50: 22.7 µM
  TGI: 49.6 µM
HOP-92 NSCLC
  GI50: 19.3 µM
  TGI: 45.4 µM
A498 renal
  GI50: 34.2 µM
  TGI: > 100 µM
HCC-2998 colon
  GI50: 17.1 µM
  TGI: 35.2 µM
SK-MEL-2 melanoma
  GI50: 43.5 µM
  TGI: > 100 µM
SF-295 CNS
  GI50: 27.1 µM
  TGI: 72.6 µM
HOP-62 NSCLC
  GI50: 24.4 µM
  TGI: 53.6 µM
EKVX NSCLC
  GI50: 18.8 µM
  TGI: 44 µM
BT-549 breast
  GI50: 24.1 µM
  TGI: 50.4 µM
CAKI-1 renal
  GI50: 16.4 µM
  TGI: 42.8 µM
MOLT-4 leukemia
  GI50: 16.5 µM
  TGI: 32.7 µM
IGROV1 ovarian
  GI50: 17.8 µM
  TGI: 44.3 µM
COLO 205 colon
  GI50: 19.6 µM
  TGI: 41.1 µM
KM12 colon
  GI50: 19.4 µM
  TGI: 46.6 µM
